Series [1] in a line: pKa of GLP1RA. It counts as physicochemical. Conditions: weak acid.
The nature of series [2]: aqueous solubility across the physiologic pH range and in simulated physiological fluids. The series is classed as physicochemical. Conditions: across the physiologic pH range as well as in simulated physiological fluids.

As a reminder, the pKa is the negative logarithm of the acid dissociation constant.

In the case of `Cc1cc(-n2nc3c(c2-n2ccn(-c4ccc5c(cnn5C)c4F)c2=O)[C@H](C)N(C(=O)c2cc4cc([C@H]5CCOC(C)(C)C5)ccc4n2[C@@]2(c4noc(=O)[nH]4)C[C@@H]2C)CC3)cc(C)c1F` [GLP1RA, 3-[(1S,2S)-1-[5-[(4S)-2,2-dimethyloxan-4-yl]-2-[(4S)-2-(4-fluoro-3,5-dimethylphenyl)-3-[3-(4-fluoro-1-methylindazol-5-yl)-2-oxoimidazol-1-yl]-4-methyl-6,7-dihydro-4H-pyrazolo[4,3-c]pyridine-5-carbonyl]indol-1-yl]-2-methylcyclopropyl]-4H-1,2,4-oxadiazol-5-one], the pKa in series [1] stood at 5.1. In series [2], the aqueous solubility entry is reported as “very low”.

The record behind these values is patent publication US20250302809A1, “GLP1 PHARMACEUTICAL COMPOSITIONS” (Eli Lilly and Company, priority 2022, published 2025).
